Experimental findings from US20070004650A1, “Endurance improving agent” (KAO CORPORATION, priority 2003, published 2007) are described below.

Holding throughout (type): cell-based, mouse
One experiment relates to phospho-AMPK α (Thr72). Put plainly: AMPK activation in Hepa 1-6 cells, phospho-AMPK α Western blot. Particulars: for Phospho-AMPK α: 60 minutes, Hepa 1-6, band intensity relative to control = 100; for AMPK-activating effect (summary in words): Hepa 1-6, results of Tables 4 to 6. Here is the method:
(§1) Test 3 (AMPK Activating Effect of Catechins)
(§2) Using a mouse hepatocyte line (Hepa 1-6), activation of AMPK was assessed based on degrees of phosphorylation of AMPK and ACC (acetyl-CoA carboxylase) as indices.
The mouse hepatocyte line (Hepa 1-6) was seeded in a 25-cm^2 flask, and cultured in DMEM (+10% FBS, +antimicrobial agent) at 37° C. for 1 to 2 days. When the culture has become subconfluent, the medium was removed. After washed with PBS(−),DMEM(−FBS)was added as a replacement medium, followed by further culture for 1 day. Subsequent to removal of the medium, DMEM (−FBS) with catechins and a tea extract added at predetermined concentrations therein was added, followed by culture for 60 minutes. Subsequent to removal of the medium and washing with PBS (−), a lytic solution [10 mM Tris (pH 7.4), 50 mM NaCl, 30 mM sodium pyrophosphate, 0.5% Triton X-100, protease inhibitor cocktail (“SIGMA P2714”), phosphatase inhibitor cocktail-1 (“SIGMA P2850”), phosphatase inhibitor cocktail 1-2 (“SIGMA P5726”); 200 μL] was added, and a lysate was collected by a cell scraper. The thus-collected lysate was caused to pass three times through a syringe with 23 G needle so that the lysate was homogenized. The homogenized lysate was then allowed stand on ice for 30 minutes. The lysate was centrifuged at 15,000 rpm and at 4° C. for 15 minutes, and proteins in supernatant were provided for use in the following experiment.
After the concentration of the proteins in supernatant was measured, it was adjusted such that the protein concentration became identical among the samples. A ¼ volume of SDS buffer (250 mM Tris, 12.5% SDS, 20% glycerol) was added, followed by further addition of 2-mercaptoethanol and bromophenol blue. The resulting mixture was subjected to thermal denaturation at 95° C., and was then quenched at 4° C. to provide a sample for electrophoresis.
A predetermined amount (about 20 to 40 μg) of the sample for electrophoresis was subjected to SDS-PAGE (4 or 12% gel). After transferred onto a membrane, phospho-AMPK α (Thr72), phospho-AMPK β (Ser108) and phospho-ACC (Ser79) were detected using an anti-phospho-AMPK α antibody (product of Cell Signaling Technology, Inc.), an anti-phospho-AMPK β antibody (product of Cell Signaling Technology, Inc.) or an anti-phospho-ACC antibody (product of Cell Signaling Technology, Inc.) as a primary antibody, an anti-rabbit-HRP antibody (product of Amersham Biosciences, Inc.) as a secondary antibody, and a phototope-HRP Western detection system (product of Cell Signaling Technology, Inc.) as a detection reagent. The intensities of detected bands were converted into numerical values (pixels) by an image analysis (“EDAS 290 Image Analysis System”, Kodak Company). Supposing that the corresponding band intensities of the control (catechins non-added group) were 100, the numerical values (pixels) were indicated as relative values to the values of the control. It is to be noted that as catechin samples, products of SIGMA Corporation or Wako Pure Chemical Industries, Ltd. were used. As the tea extract (tea catechins), “TEAFURAN” (product of ITO EN, LTD.) as used.
Background: Immunoblotting shows a protein as a band on a membrane.

The next experiment deals with phospho-AMPK β (Ser108). Put plainly: AMPK activation in Hepa 1-6 cells, phospho-AMPK β Western blot. Particulars: 60 minutes, band intensity relative to control = 100. On the procedure:
as §1, §2
The mouse hepatocyte line (Hepa 1-6) was seeded in a 25-cm^2 flask, and cultured in DMEM (+10% FBS, +antimicrobial agent) at 37° C. for 1 to 2 days. When the culture has become subconfluent, the medium was removed. After washed with PBS(−),DMEM(−FBS)was added as a replacement medium, followed by further culture for 1 day. […]
After the concentration of the proteins in supernatant was measured, it was adjusted such that the protein concentration became identical among the samples. […]
A predetermined amount (about 20 to 40 μg) of the sample for electrophoresis was subjected to SDS-PAGE (4 or 12% gel). After transferred onto a membrane, phospho-AMPK α (Thr72), phospho-AMPK β (Ser108) and phospho-ACC (Ser79) were detected using an anti-phospho-AMPK α antibody (product of Cell Signaling Technology, Inc.), an anti-phospho-AMPK β antibody (product of Cell Signaling Technology, Inc.) or an anti-phospho-ACC antibody (product of Cell Signaling Technology, Inc.) as a primary antibody, an anti-rabbit-HRP antibody (product of Amersham Biosciences, Inc.) as a secondary antibody, and a phototope-HRP Western detection system (product of Cell Signaling Technology, Inc.) as a detection reagent. […]

For the next experiment, the system named is phospho-ACC (Ser79). As to the kind of experiment: AMPK activation in Hepa 1-6 cells, phospho-ACC Western blot. Particulars: 60 minutes, band intensity relative to control = 100.

Method for phospho-ACC (Ser79): The mouse hepatocyte line (Hepa 1-6) was seeded in a 25-cm^2 flask, and cultured in DMEM (+10% FBS, +antimicrobial agent) at 37° C. for 1 to 2 days. When the culture has become subconfluent, the medium was removed. After washed with PBS(−),DMEM(−FBS)was added as a replacement medium, followed by further culture for 1 day. Subsequent to removal of the medium, DMEM (−FBS) with catechins and a tea extract added at predetermined concentrations therein was added, followed by culture for 60 minutes. […]
A predetermined amount (about 20 to 40 μg) of the sample for electrophoresis was subjected to SDS-PAGE (4 or 12% gel). […] The intensities of detected bands were converted into numerical values (pixels) by an image analysis (“EDAS 290 Image Analysis System”, Kodak Company). […]

For the compound Catechingallate, the “Phospho-AMPK α” value in the experiment on phospho-AMPK α (Thr72) (Table 4, 150 μM) was determined as 369.
In the case of `Oc1cc(O)c2c(c1)O[C@H](c1cc(O)c(O)c(O)c1)[C@H](O)C2` [Epigallocatechin], the “AMPK-activating effect (summary in words)” value (“AMPK-activating effect” for short) with phospho-AMPK α (Thr72) is “excellent AMPK-activating effect”. For the same compound, in the experiment with phospho-AMPK α (Thr72) (Table 4, 150 μM), the “Phospho-AMPK α” value is reported as 435.
The corresponding values for `O=C(O[C@@H]1Cc2c(O)cc(O)cc2O[C@H]1c1cc(O)c(O)c(O)c1)c1cc(O)c(O)c(O)c1` [Gallocatechingallate] are “excellent AMPK-activating effect” and 1124.
As for `Oc1cc(O)c2c(c1)O[C@H](c1ccc(O)c(O)c1)[C@H](O)C2` [Epicatechin], in the experiment on phospho-AMPK α (Thr72) (Table 4, 150 μM), the “Phospho-AMPK α” value is 246.
For `Oc1cc(O)c2c(c1)O[C@H](c1cc(O)c(O)c(O)c1)[C@@H](O)C2` [Gallocatechin], in the experiment on phospho-AMPK α (Thr72), the “AMPK-activating effect” value was “excellent AMPK-activating effect”. In addition, the “Phospho-AMPK α” value in the experiment with phospho-AMPK α (Thr72) (Table 4, 150 μM) was found to be 451.
Take `O=C(O[C@@H]1Cc2c(O)cc(O)cc2O[C@@H]1c1ccc(O)c(O)c1)c1cc(O)c(O)c(O)c1` [Epicatechingallate]: the “Phospho-AMPK α” value in the experiment on phospho-AMPK α (Thr72) (Table 4, 150 μM) is 256.
Still for that read-out and setting: then Catechin, with 78.
Take `O=C(O[C@@H]1Cc2c(O)cc(O)cc2O[C@@H]1c1cc(O)c(O)c(O)c1)c1cc(O)c(O)c(O)c1` [Epigallocatechingallate]: in the experiment with phospho-AMPK α (Thr72), the “AMPK-activating effect” value is listed as “excellent AMPK-activating effect”. The “Phospho-AMPK α” value was 1085 with phospho-AMPK α (Thr72) (Table 4, 150 μM); 198 with phospho-AMPK α (Thr72) (Table 5, 100 μM); 261 in the experiment with phospho-AMPK α (Thr72) (Table 5, 150 μM). For the same compound, the “Phospho-AMPK β” value worked out at 120 in the experiment on phospho-AMPK β (Ser108) (Table 5, 100 μM) and 149 in the experiment on phospho-AMPK β (Ser108) (Table 5, 150 μM). For the same compound, the Phospho-ACC in the experiment with phospho-ACC (Ser79) (Table 5, 100 μM) was determined as 220; in the experiment with phospho-ACC (Ser79) (Table 5, 150 μM), 304.
